Experimental data taken from paper PMC12389586, “Anticancer Activity of Paclitaxel-Loaded Mesoporous Silica Nanoparticles in B16F10 Melanoma-Bearing Mice” (Pharmaceutics, 2025).
pIC50: −log10 of the molar value.

How the values were obtained:
[1] = In vitro drug release test (dialysis pouch); assay type: physicochemical; conditions: over 48 h; SBF pH 7.4, release medium SBF + 0.5% Tween 80
Protocol: The in vitro drug release of PTX from the formulation was measured as follows: PTX and PS (all containing 2 mg PTX) were placed in the cellulose membrane pouch (Snakeskin^TM Dialysis Tubing 10,000 MWCO; Thermo Fisher Scientific Inc.; Waltham, MA, USA), and 5 mL of SBF (pH 7.4) was added inside the cellulose membrane pouch. The cellulose membrane pouch was put into 50 mL of SBF containing 0.5% Tween 80 in a 250 mL beaker and shaken at 100 rpm in a dual-motion shaker (Finepcr; Gunpo-si, Republic of Korea). Samples (100 μL aliquots) were collected for 48 h, and then diluted 100-fold with mobile phase and injected into the LC-MS/MS system to measure the PTX concentration.
In this study, PS in 5 mL SBF was placed in a dialysis pouch, while the exterior release medium consisted of 50 mL of SBF + 0.5% Tween 80. This large external volume and surfactant content allowed the PTX released from the pouch to diffuse into the external medium and remain dissolved.

B16F10 cells [2] = assay: Cell viability (MTT assay); assay type: cell-based; conditions: Mus musculus, B16-F10, 48 h exposure, 0–1000 nM PTX or equivalent
Protocol: B16F10 cells were seeded at a density of 4 × 10^4 cells per well in a 96-well plate and incubated at 37 °C in a 5% CO2 atmosphere for 24 h to allow cell attachment and stabilization before drug administration. After 24 h, the medium was replaced with fresh culture media containing various PTX formulations (i.e., PTX, PS, PS with CUR, PS with TPGS, and PS with verapamil) at increasing concentrations (0, 10, 20, 50, 100, 200, 500, and 1000 nM) of PTX or its equivalent amount.
After 48 h of drug exposure, MTT reagent (0.5 mg/mL in PBS, 15 μL) was added to each well, followed by an additional 4 h incubation to allow mitochondrial dehydrogenase enzymes in viable cells to reduce MTT into insoluble formazan crystals. The resulting formazan was then solubilized using 150 μL DMSO, and the absorbance was measured at 592 nm using an ultraviolet (UV) spectrophotometer. Cell viability was calculated relative to the untreated control group. Data were fitted using the inhibitory effect model v=Emax(1−[I]/IC50+[I]) . Emax and IC50 represent uninhibited cell viability (%) and the concentration of PTX (nM) at which half-maximal inhibition occurs. [I] represents the concentration of PTX.

B16F10 spheroids = assay: Cytotoxicity and PTX accumulation in 3D cultured spheroid; assay type: cell-based; conditions: for spheroid growth / radius: 5 days, PTX 25 µg/mL or equivalent, CUR 200 µg/mL, TPGS 600 µg/mL, SMB7 200 µg/mL
Protocol: B16F10 cells were seeded at a density of 3 × 10^5 cells per well in an ultra-low attachment 96-well plate to facilitate spheroid formation. Immediately after seeding, the plate was centrifuged at […] for 15 min to promote cell aggregation. Following centrifugation, the spheroids were allowed to stabilize for 24 h before drug treatment. The spheroids were treated with the following conditions and grown for 5 days: control, 200 μg/mL of SMB7, 200 μg/mL of curcumin, 25 μg/mL of PTX, PS (equivalent to 25 μg/mL PTX), PS with curcumin (equivalent to 25 μg/mL PTX + 200 μg/mL curcumin), and PS with TPGS (equivalent to 25 μg/mL PTX + 600 μg/mL TPGS).
During the culture period, the spheroid radius was measured daily to assess tumor growth inhibition across different treatment groups. After five days, the spheroids were harvested, disrupted into a single-cell suspension, and analyzed for intracellular PTX and curcumin concentrations using LC–MS/MS. Additionally, the culture medium was collected from each well and analyzed to quantify the remaining extracellular concentrations of PTX and curcumin, providing further insights into drug uptake and retention within the spheroids.

B16F10 cells [3] = assay: Apoptosis analysis by flow cytometry (Annexin V); assay type: cell-based; conditions: 24 h; equivalent to 25 μg/mL PTX (+200 μg/mL CUR, +600 μg/mL TPGS)
Protocol: B16F10 cells were seeded at a density of 8 × 10^4 cells in a cell culture dish and cultured until a confluency of 80% was reached. Upon reaching the desired confluency, the culture medium was aspirated and replaced with fresh medium containing one of the following treatments: control, PTX (25 μg/mL), PS (equivalent to 25 μg/mL PTX), PSC (equivalent to 25 μg/mL PTX + 200 μg/mL curcumin), and PSCT (equivalent to 25 μg/mL PTX + 200 μg/mL curcumin + 600 μg/mL TPGS).
After 24 h of treatment, the culture supernatant was collected into a 15 mL conical tube. Cells were then detached using 1.5 mL of trypsin, and the resulting cell suspension—including detached cells and debris—was combined with the previously collected medium in the same tube. The samples were centrifuged at 1000 rpm for 3 min, and the supernatant was carefully discarded. The cell pellet was resuspended in 1 mL of DMEM supplemented with 10% FBS and 1% penicillin–streptomycin. Subsequently, 100 μL of the Muse Annexin V and Dead Cell kit (Cytek Biosciences Inc., Fremont, CA, USA) was added to the cell suspension, and the samples were incubated at room temperature in the dark for 20 min. Apoptosis and cell viability were then assessed using the Guava® Muse® Cell Analyzer (Cytek Biosciences Inc., Fremont, CA, USA).

β-tubulin = assay: Confocal staining of β-tubulin and nuclei; assay type: cell-based; conditions: B16F10 cells, 24 h; PTX 25 µg/mL or equivalent, CUR 200 µg/mL, TPGS 600 µg/mL, SMB7 200 µg/mL
Protocol: B16F10 cells were seeded at a density of 4 × 10^4 cells per well in a 24-well plate and cultured until a confluency of 80% was reached. Once the desired confluency was achieved, the culture medium was replaced with fresh media containing the following respective treatments: control, 200 μg/mL of SMB7, 200 μg/mL of curcumin, 25 μg/mL of PTX, PS (equivalent to 25 μg/mL PTX), PS with curcumin (equivalent to 25 μg/mL PTX + 200 μg/mL curcumin), and PS with TPGS (equivalent to 25 μg/mL PTX + 600 μg/mL TPGS).
Cells were incubated post-treatment for 24 h and then fixed and stained to visualize intracellular structures. DAPI was used for DNA staining to highlight nuclear morphology, and goat anti-Mouse IgG conjugated with FSD 594 was employed for β-tubulin staining to observe microtubule organization. As PTX primarily acts by stabilizing microtubules, fluorescence images were acquired using an LSM700 confocal laser scanning microscope (Carl Zeiss GmbH, Oberkochen, Germany). Confocal images were acquired at 100 × magnification to enhance the visualization of DNA and β-tubulin structures, enabling the assessment of PTX-induced cytoskeletal disruption and apoptosis-related nuclear changes.

[4] = Biodistribution in B16F10 melanoma-bearing mice; assay type: in vivo, C57BL/6 mice; conditions: C57BL/6, mouse, subcutaneous, heart, lung, kidney, pancreas, liver and tumor tissues, read-out: PTX tissue concentration relative to plasma
Protocol: After the final injection, the mice from PTX + CUR, PSC, and PSCT groups were randomly subdivided into two time points (n = 5 for each subgroup; 2 h and 8 h post-administration) for pharmacokinetic and biodistribution analyses. At the designated time points (0.25, 1, and 2 h from the 2 h group; 0.5, 4, and 8 h from the 8 h group), blood samples (approximately 80 µL) were collected from the retro-orbital plexus of mice. For the PTX and CUR analyses, 30 µL of plasma aliquots were stored at −80 °C. At 2 h, the mice were anesthetized, and the organs (heart, lung, liver, kidney, pancreas, and tumor) were harvested, weighed, and homogenized using a MM400 Laboratory Ball Mixer Mill (Retsch, Haan, Germany). Aliquots (50 µL) of 20% tissue homogenates prepared using 10% MeOH were stored at −80 °C for subsequent analyses. […]
The biodistribution of PTX in various mouse tissues was quantified and expressed as a percentage of the injected dose per gram of tissue (%ID/g). […] The following formula was used to calculate the drug concentration in the tissue, which is measured (e.g., ng), normalized to the total injected dose, and further corrected based on the weight of the harvested tissue to standardize drug accumulation across different organs as follows: %ID/g=Drug amount in each organmg/Injected Dose mg×100×1/Organ weight (g) .

[5] = after 5 days of treatment, equivalent to 25 μg/mL PTX

Row | drug release [1] | pIC50 (B16F10 cells [2]) | Kp at 2 h [4] | Compound | spheroid growth / radius (B16F10 spheroids) | Incorporated PTX (B16F10 spheroids; [5]) | PTX concentration (intracellular accumulation in spheroids) (B16F10 spheroids; [5]) | early apoptosis (B16F10 cells [3]) | late apoptosis (Late Apop./Dead) (B16F10 cells [3]) | total apoptosis rate (B16F10 cells [3]) | β-tubulin expression (microtubule integrity) (β-tubulin)
1 | 6.58% | 6.55 | > 100 | CC(=O)O[C@H]1C(=O)[C@@]2(C)[C@H]([C@H](OC(=O)c3ccccc3)[C@]3(O)C[C@H](OC(=O)[C@H](O)[C@@H](NC(=O)c4ccccc4)c4ccccc4)C(C)=C1C3(C)C)[C@]1(OC(C)=O)CO[C@@H]1C[C@@H]2O [PTX, Paclitaxel] | significantly suppressed the tumor growth of B16F10 spheroids | 20.3% | 5.09 ± 0.16 µg/mL | 11.5% | 9.8% | 21.3% | pronounced decrease in β-tubulin intensity
2 |  |  |  | COc1cc(/C=C/C(=O)CC(=O)/C=C/c2ccc(O)c(OC)c2)ccc1O [CUR, Curcumin] | significantly suppressed the tumor growth of B16F10 spheroids |  |  |  |  |  | moderate reduction in β-tubulin expression
